Like-named read-outs stand apart in the source and are kept apart here.
Experiments:
[1] = tested on: Key Grass and Sedge Weeds as well as Grass Crops; assay: Post-Emergent Test II: postemergent herbicidal activity, visual rating after 14 d (Table 8); type: in vivo; conditions: post-emergence, 336 h; for pest or weed control at 35 g/ha: 35 g ai/ha; for pest or weed control at 70 g/ha: 70 g ai/ha; for pest or weed control at 140 g/ha: 140 g ai/ha
In short: (§1)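 Visual scoring at 14 d, 0 (no injury) to 100 (complete kill), relative to untreated plants. Postemergent overhead track-sprayer application, 187 L/ha, at a top rate plus serial ½×–1/16× rates, to plants grown 7–21 d at about 23–29° C day under a 15 h photoperiod, then subirrigated.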

[2] = tested on: Key Broadleaf Weed and Crop Species; assay: Post-Emergent Test II: postemergent herbicidal activity, visual rating after 14 d (Table 7); type: in vivo; conditions: post-emergence, 336 h; for pest or weed control at 35 g/ha: 35 g ai/ha; for pest or weed control at 70 g/ha: 70 g ai/ha; for pest or weed control at 140 g/ha: 140 g ai/ha
In short: as §1

[3] = barnyardgrass (Echinochloa crus-galli), read-out: Visual Growth Reduction (%) 14 Days After Application ECHCG
[4] = giant foxtail (Setaria faberi), read-out: Visual Growth Reduction (%) 14 Days After Application SETFA
[5] = maize, corn (Zea mays), read-out: Visual Growth Reduction (%) 14 Days After Application ZEAMX
[6] = rice (Oryza sativa), read-out: Visual Growth Reduction (%) 14 Days After Application ORYSA
[7] = wheat, spring (Triticum aestivum), read-out: Visual Growth Reduction (%) 14 Days After Application TRZAS
[8] = yellow nutsedge (Cyperus esculentus), read-out: Visual Growth Reduction (%) 14 Days After Application CYPES
[9] = lambsquarters (Chenopodium album), read-out: Visual Growth Reduction (%) 14 Days After Application CHEAL
[10] = oilseed rape, canola (Brassica napus), read-out: Visual Growth Reduction (%) 14 Days After Application BRSNN
[11] = redroot pigweed (Amaranthus retroflexus), read-out: Visual Growth Reduction (%) 14 Days After Application AMARE
[12] = sunflower (Helianthus annuus), read-out: Visual Growth Reduction (%) 14 Days After Application HELAN
[13] = velvetleaf (Abutilon theophrasti), read-out: Visual Growth Reduction (%) 14 Days After Application ABUTH
[14] = wild poinsettia (Euphorbia heterophylla), read-out: Visual Growth Reduction (%) 14 Days After Application EPHHL

SMILES: Nc1cc(-c2ccc3c(c2F)OC(F)(F)O3)nc(C(=O)O)c1Cl [Compound 41]
- pest or weed control at 35 g/ha [1, 3]: 75 to 84%
- pest or weed control at 70 g/ha [1, 3]: 85 to 94%
- pest or weed control at 140 g/ha [1, 3]: 95 to 100%
- pest or weed control at 35 g/ha [1, 4]: 75 to 84%
- pest or weed control at 70 g/ha [1, 4]: 85 to 94%
- pest or weed control at 140 g/ha [1, 4]: 85 to 94%
- pest or weed control at 35 g/ha [1, 5]: 60 to 74%
- pest or weed control at 70 g/ha [1, 5]: 75 to 84%
- pest or weed control at 140 g/ha [1, 5]: 75 to 84%
- pest or weed control at 35 g/ha [1, 6]: 0 to 29%
- pest or weed control at 70 g/ha [1, 6]: 0 to 29%
- pest or weed control at 140 g/ha [1, 6]: 0 to 29%
- pest or weed control at 35 g/ha [1, 7]: 30 to 44%
- pest or weed control at 70 g/ha [1, 7]: 30 to 44%
- pest or weed control at 140 g/ha [1, 7]: 45 to 59%
- pest or weed control at 35 g/ha [1, 8]: 0 to 29%
- pest or weed control at 70 g/ha [1, 8]: 0 to 29%
- pest or weed control at 140 g/ha [1, 8]: 0 to 29%
- pest or weed control at 35 g/ha [2, 9]: 85 to 94%
- pest or weed control at 70 g/ha [2, 9]: 85 to 94%
- pest or weed control at 140 g/ha [2, 9]: 85 to 94%
- pest or weed control at 35 g/ha [2, 10]: 60 to 74%
- pest or weed control at 70 g/ha [2, 10]: 75 to 84%
- pest or weed control at 140 g/ha [2, 10]: 75 to 84%
- pest or weed control at 35 g/ha [2, 11]: 95 to 100%
- pest or weed control at 70 g/ha [2, 11]: 95 to 100%
- pest or weed control at 140 g/ha [2, 11]: 95 to 100%
- pest or weed control at 35 g/ha [2, 12]: 0 to 29%
- pest or weed control at 70 g/ha [2, 12]: 60 to 74%
- pest or weed control at 140 g/ha [2, 12]: 60 to 74%
- pest or weed control at 35 g/ha [2, 13]: 60 to 74%
- pest or weed control at 70 g/ha [2, 13]: 75 to 84%
- pest or weed control at 140 g/ha [2, 13]: 75 to 84%
- pest or weed control at 35 g/ha [2, 14]: 95 to 100%
- pest or weed control at 70 g/ha [2, 14]: 95 to 100%
- pest or weed control at 140 g/ha [2, 14]: 95 to 100%

SMILES: COC(=O)c1nc(-c2ccc3c(c2OC)OC(F)(F)O3)cc(N)c1Cl [Compound 47]
- pest or weed control at 35 g/ha [1, 3]: 0 to 29%
- pest or weed control at 70 g/ha [1, 3]: 0 to 29%
- pest or weed control at 140 g/ha [1, 3]: 0 to 29%
- pest or weed control at 35 g/ha [1, 4]: 0 to 29%
- pest or weed control at 70 g/ha [1, 4]: 0 to 29%
- pest or weed control at 140 g/ha [1, 4]: 0 to 29%
- pest or weed control at 35 g/ha [1, 5]: 0 to 29%
- pest or weed control at 70 g/ha [1, 5]: 0 to 29%
- pest or weed control at 140 g/ha [1, 5]: 0 to 29%
- pest or weed control at 35 g/ha [1, 6]: 0 to 29%
- pest or weed control at 70 g/ha [1, 6]: 0 to 29%
- pest or weed control at 140 g/ha [1, 6]: 0 to 29%
- pest or weed control at 35 g/ha [1, 7]: 0 to 29%
- pest or weed control at 70 g/ha [1, 7]: 0 to 29%
- pest or weed control at 140 g/ha [1, 7]: 0 to 29%
- pest or weed control at 35 g/ha [1, 8]: 0 to 29%
- pest or weed control at 70 g/ha [1, 8]: 0 to 29%
- pest or weed control at 140 g/ha [1, 8]: 0 to 29%
- pest or weed control at 35 g/ha [2, 9]: 30 to 44%
- pest or weed control at 70 g/ha [2, 9]: 30 to 44%
- pest or weed control at 140 g/ha [2, 9]: 45 to 59%
- pest or weed control at 35 g/ha [2, 10]: 60 to 74%
- pest or weed control at 70 g/ha [2, 10]: 60 to 74%
- pest or weed control at 140 g/ha [2, 10]: 60 to 74%
- pest or weed control at 35 g/ha [2, 11]: 0 to 29%
- pest or weed control at 70 g/ha [2, 11]: 75 to 84%
- pest or weed control at 140 g/ha [2, 11]: 85 to 94%
- pest or weed control at 35 g/ha [2, 12]: 30 to 44%
- pest or weed control at 70 g/ha [2, 12]: 30 to 44%
- pest or weed control at 140 g/ha [2, 12]: 45 to 59%
- pest or weed control at 35 g/ha [2, 13]: 0 to 29%
- pest or weed control at 70 g/ha [2, 13]: 30 to 44%
- pest or weed control at 140 g/ha [2, 13]: 60 to 74%
- pest or weed control at 35 g/ha [2, 14]: 0 to 29%
- pest or weed control at 70 g/ha [2, 14]: 0 to 29%
- pest or weed control at 140 g/ha [2, 14]: 0 to 29%

SMILES: COC(=O)c1nc(-c2ccc(Cl)c3c2OC(F)(F)O3)c(F)c(N)c1Cl [Compound 75]
- pest or weed control at 35 g/ha [1, 3]: 0 to 29%
- pest or weed control at 70 g/ha [1, 3]: 0 to 29%
- pest or weed control at 140 g/ha [1, 3]: 0 to 29%
- pest or weed control at 35 g/ha [1, 4]: 0 to 29%
- pest or weed control at 70 g/ha [1, 4]: 0 to 29%
- pest or weed control at 140 g/ha [1, 4]: 0 to 29%
- pest or weed control at 35 g/ha [1, 5]: 95 to 100%
- pest or weed control at 70 g/ha [1, 5]: 95 to 100%
- pest or weed control at 140 g/ha [1, 5]: 95 to 100%
- pest or weed control at 35 g/ha [1, 6]: 0 to 29%
- pest or weed control at 70 g/ha [1, 6]: 0 to 29%
- pest or weed control at 140 g/ha [1, 6]: 0 to 29%
- pest or weed control at 35 g/ha [1, 7]: 0 to 29%
- pest or weed control at 70 g/ha [1, 7]: 0 to 29%
- pest or weed control at 140 g/ha [1, 7]: 0 to 29%
- pest or weed control at 35 g/ha [1, 8]: 0 to 29%
- pest or weed control at 70 g/ha [1, 8]: 0 to 29%
- pest or weed control at 140 g/ha [1, 8]: 45 to 59%
- pest or weed control at 35 g/ha [2, 9]: 95 to 100%
- pest or weed control at 70 g/ha [2, 9]: 95 to 100%
- pest or weed control at 140 g/ha [2, 9]: 95 to 100%
- pest or weed control at 35 g/ha [2, 10]: 75 to 84%
- pest or weed control at 70 g/ha [2, 10]: 85 to 94%
- pest or weed control at 140 g/ha [2, 10]: 95 to 100%
- pest or weed control at 35 g/ha [2, 11]: 95 to 100%
- pest or weed control at 70 g/ha [2, 11]: 95 to 100%
- pest or weed control at 140 g/ha [2, 11]: 95 to 100%
- pest or weed control at 35 g/ha [2, 12]: 95 to 100%
- pest or weed control at 70 g/ha [2, 12]: 95 to 100%
- pest or weed control at 140 g/ha [2, 12]: 95 to 100%
- pest or weed control at 35 g/ha [2, 13]: 85 to 94%
- pest or weed control at 70 g/ha [2, 13]: 95 to 100%
- pest or weed control at 140 g/ha [2, 13]: 95 to 100%
- pest or weed control at 35 g/ha [2, 14]: 0 to 29%
- pest or weed control at 70 g/ha [2, 14]: 0 to 29%
- pest or weed control at 140 g/ha [2, 14]: 0 to 29%

SMILES: COC(=O)c1nc(-c2cc3c(cc2F)OC(F)(F)O3)nc(N)c1OC [Compound 64]
- pest or weed control at 35 g/ha [1, 3]: 0 to 29%
- pest or weed control at 70 g/ha [1, 3]: 45 to 59%
- pest or weed control at 140 g/ha [1, 3]: 75 to 84%
- pest or weed control at 35 g/ha [1, 4]: 0 to 29%
- pest or weed control at 70 g/ha [1, 4]: 45 to 59%
- pest or weed control at 140 g/ha [1, 4]: 75 to 84%
- pest or weed control at 35 g/ha [1, 5]: 30 to 44%
- pest or weed control at 70 g/ha [1, 5]: 45 to 59%
- pest or weed control at 140 g/ha [1, 5]: 75 to 84%
- pest or weed control at 35 g/ha [1, 6]: 0 to 29%
- pest or weed control at 70 g/ha [1, 6]: 0 to 29%
- pest or weed control at 140 g/ha [1, 6]: 0 to 29%
- pest or weed control at 35 g/ha [1, 7]: 0 to 29%
- pest or weed control at 70 g/ha [1, 7]: 30 to 44%
- pest or weed control at 140 g/ha [1, 7]: 30 to 44%
- pest or weed control at 35 g/ha [1, 8]: 30 to 44%
- pest or weed control at 70 g/ha [1, 8]: 60 to 74%
- pest or weed control at 140 g/ha [1, 8]: 85 to 94%
- pest or weed control at 35 g/ha [2, 9]: 0 to 29%
- pest or weed control at 70 g/ha [2, 9]: 0 to 29%
- pest or weed control at 140 g/ha [2, 9]: 0 to 29%
- pest or weed control at 35 g/ha [2, 10]: 0 to 29%
- pest or weed control at 70 g/ha [2, 10]: 0 to 29%
- pest or weed control at 140 g/ha [2, 10]: 0 to 29%
- pest or weed control at 35 g/ha [2, 11]: 0 to 29%
- pest or weed control at 70 g/ha [2, 11]: 0 to 29%
- pest or weed control at 140 g/ha [2, 11]: 0 to 29%
- pest or weed control at 35 g/ha [2, 12]: 0 to 29%
- pest or weed control at 70 g/ha [2, 12]: 60 to 74%
- pest or weed control at 140 g/ha [2, 12]: 75 to 84%
- pest or weed control at 35 g/ha [2, 13]: 0 to 29%
- pest or weed control at 70 g/ha [2, 13]: 0 to 29%
- pest or weed control at 140 g/ha [2, 13]: 0 to 29%
- pest or weed control at 35 g/ha [2, 14]: 75 to 84%
- pest or weed control at 70 g/ha [2, 14]: 85 to 94%
- pest or weed control at 140 g/ha [2, 14]: 95 to 100%
